In patent publication US12612412B2, “Antiviral heterocyclic compounds” (Enanta Pharmaceuticals, Inc., priority 2021, dated 2026):

What was measured:
[1] = test system: HMPV clinical isolate TN/1501/A1; assay: HMPV antiviral assay Method-B (clinical isolate TN/1501/A1 in LLC-MK2 cells, ATP-Lite readout); type: cell-based, Human metapneumovirus (HMPV); conditions: human metapneumovirus, LLC-MK2, 144 h, hMPV WT1501 (clinical isolate TN/1501/A1), 6 days
In short: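 LLC-MK2 cells infected in suspension with TN/1501/A1 at MOI 0.014 in serum-free medium with 2 μg/mL TPCK-trypsin (final), incubated 6 days at 37° C. Compounds tested in duplicate, 10-point 3-fold dilutions from 10 μM. Cell health read by ATP-Lite luminescence, normalised to virus-only and cells-only controls; EC50 by four-parameter logistic fit.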

[2] = test system: genotype A, "Long" strain RSV; assay: RSV-A assay (CPE protection in Hep-2 cells, ATPlite readout); type: cell-based, Human respiratory syncytial virus (HRSV); conditions: human respiratory syncytial virus, RSV-A Long strain, MOI 0.1, CPE protection, read-out: Human RSV-A (“Long”) EC50
In short: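 Compound effect on RSV-induced CPE: Hep-2 monolayers, MOI 0.1, duplicate 2-fold titrations, 5-day culture in 10% FBS DMEM. Readout is ATP-based luminescence, normalised to virus-only and no-virus controls, giving EC50.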

SMILES | EC50 [1] | EC50 [2]
COc1cc(C(=O)NC[C@](O)(c2cc3c(c(-c4ccc5c(c4)OC(F)(F)O5)n2)OC[C@]3(C(N)=O)C(F)F)C(F)(F)F)cc2cn(C3CC3)nc12 [Example 1034] | > 0.5 µM | > 0.2 µM
COc1cc(C(=O)NC[C@](O)(c2cc3c(c(-c4ccc5c(c4)OC(F)(F)O5)n2)OC[C@@]3(C(N)=O)C(F)F)C(F)(F)F)cc2cn(C3CC3)nc12 [Example 1035] | < 0.5 µM | < 0.2 µM
COc1cc(C(=O)NC[C@](O)(c2cc3c(c(-c4ccc(F)c(F)c4F)n2)OC[C@]3(C(N)=O)C(F)F)C(F)(F)F)cc2cn(C3CC3)nc12 [Example 1038] | > 0.5 µM | > 0.2 µM
COc1cc(C(=O)NC[C@](O)(c2cc3c(c(-c4ccc(F)c(F)c4F)n2)OC[C@@]3(C(N)=O)C(F)F)C(F)(F)F)cc2cn(C3CC3)nc12 [Example 1039] | < 0.5 µM | < 0.2 µM
COc1cc(C(=O)NC[C@](O)(c2cc3c(c(-c4ccc5c(c4)OC(F)(F)O5)n2)OC[C@@]3(C(N)=O)C(F)F)C2CC2)cc2cn(C3(F)CC3)nc12 [Example 1042] | < 0.5 µM | < 0.2 µM
Cc1cnc2c(OC(F)F)cc(C(=O)NC[C@](O)(c3cc4c(c(-c5ccc6c(c5)OC(F)(F)O6)n3)OC[C@@]4(C(N)=O)C(F)F)C(F)(F)F)cc2c1 [Example 1043] | < 0.5 µM | < 0.2 µM
COc1cc(C(=O)NC[C@](O)(c2cc3c(c(-c4ccc5c(c4)OC(F)(F)O5)n2)OC[C@@]3(C(N)=O)C(F)F)C2CC2)cc2cn(C(F)F)nc12 [Example 1044] | < 0.5 µM | < 0.2 µM
COc1cc(C(=O)NC[C@](O)(c2cc3c(c(-c4ccc(F)c(Cl)c4)n2)OC[C@@]3(C(N)=O)C(F)F)C2CC2)cc2cn(C(F)F)nc12 [Example 1045] | < 0.5 µM | < 0.2 µM
NC(=O)[C@]1(CF)COc2c1cc([C@@](O)(CNC(=O)c1cc(OC3CC3)c3ncccc3c1)C1CC1)nc2-c1ccc(F)cc1 [Example 1053] | > 0.5 µM | > 0.2 µM
NC(=O)[C@@]1(CF)COc2c1cc([C@@](O)(CNC(=O)c1cc(OC3CC3)c3ncccc3c1)C1CC1)nc2-c1ccc(F)cc1 [Example 1054] | > 0.5 µM | < 0.2 µM
Cc1cnc2c(OC(F)F)cc(C(=O)NC[C@](O)(c3cc4c(c(-c5ccc(F)cc5)n3)OC[C@@]4(CF)C(N)=O)C3CC3)cc2c1 [Example 1057] | > 0.5 µM | > 0.2 µM
Cc1cnc2c(OC(F)F)cc(C(=O)NC[C@](O)(c3cc4c(c(-c5ccc(F)cc5)n3)OC[C@]4(CF)C(N)=O)C3CC3)cc2c1 [Example 1058] | < 0.5 µM | < 0.2 µM
COc1cc(C(=O)NC[C@](O)(c2cc3c(c(-c4ccc(F)cc4)n2)OC[C@@]3(CF)C(N)=O)C2CC2)cc2cc(C3CC3)nn12 [Example 1059] | > 0.5 µM | > 0.2 µM
COc1cc(C(=O)NC[C@](O)(c2cc3c(c(-c4ccc(F)cc4)n2)OC[C@]3(CF)C(N)=O)C2CC2)cc2cc(C3CC3)nn12 [Example 1060] | < 0.5 µM | < 0.2 µM
COc1cc(C(=O)NC[C@](O)(c2cc3c(c(-c4ccc(F)cc4)n2)OC[C@@]3(CF)C(N)=O)C2CC2)cc2cn(C(F)F)nc12 [Example 1061] | > 0.5 µM | > 0.2 µM
COc1cc(C(=O)NC[C@](O)(c2cc3c(c(-c4ccc(F)cc4)n2)OC[C@@]3(CF)C(N)=O)C2CC2)cc2cn(C3CC3)nc12 [Example 1063] | > 0.5 µM | > 0.2 µM
COc1cc(C(=O)NC[C@](O)(c2cc3c(c(-c4ccc(F)cc4)n2)OC[C@]3(CF)C(N)=O)C2CC2)cc2cn(C3CC3)nc12 [Example 1064] | < 0.5 µM | < 0.2 µM
COc1cc(C(=O)NC[C@](O)(c2nc(-c3cc(Cl)c(F)cc3F)c3c(c2Cl)[C@@](C)(C(N)=O)CO3)C2CC2)cc2cn(C3CC3)nc12 [Example 1081] | < 0.5 µM | < 0.2 µM
Cc1cnc2c(Cl)cc(C(=O)NC[C@](O)(c3cc4c(c(-c5ccc(F)c(Br)c5F)n3)OC[C@]4(C)C(N)=O)C3CC3)cc2c1 [Example 1084] | < 0.5 µM | < 0.2 µM
COc1cc(C(=O)NC[C@](O)(c2cc3c(c(-c4cccc(Br)c4F)n2)OC[C@]3(C)C(N)=O)C2CC2)cc2cn(C3CC3)nc12 [Example 1085] | < 0.5 µM | < 0.2 µM
COc1cc(C(=O)NC[C@](O)(c2cc3c(c(-c4cccc(Br)c4F)n2)OC[C@]3(C)C(N)=O)C2CC2)cc2cn(C3(F)CC3)nc12 [Example 1087] | < 0.5 µM | < 0.2 µM
COc1cc(C(=O)NC[C@](O)(c2cc3c(c(-c4cc(Br)c(F)cc4F)n2)OC[C@]3(C)C(N)=O)C2CC2)cc2cn(C3CC3)nc12 [Example 1088] | < 0.5 µM | < 0.2 µM
COc1cc(C(=O)NC[C@](O)(c2cc3c(c(-c4cc(Br)c(F)cc4F)n2)OC[C@]3(C)C(N)=O)C2CC2)cc2cn(C3(F)CC3)nc12 [Example 1089] | < 0.5 µM | < 0.2 µM

Other lines, results leading:

EC50 [1] | EC50 [2] | SMILES
> 0.5 µM | > 0.2 µM | COc1cc(C(=O)NC[C@](O)(c2cc3c(c(-c4ccc5c(c4)OC(F)(F)O5)n2)OC[C@]3(C(N)=O)C(F)F)C(F)(F)F)cc2cc(Cl)c(C)nc12 [Example 1036]
< 0.5 µM | < 0.2 µM | COc1cc(C(=O)NC[C@](O)(c2cc3c(c(-c4ccc5c(c4)OC(F)(F)O5)n2)OC[C@@]3(C(N)=O)C(F)F)C(F)(F)F)cc2cc(Cl)c(C)nc12 [Example 1037]
> 0.5 µM | < 0.2 µM | COc1cc(C(=O)NC[C@](O)(c2cc3c(c(-c4ccc(F)c(F)c4F)n2)OC[C@]3(C(N)=O)C(F)F)C(F)(F)F)cc2cc(Cl)c(C)nc12 [Example 1040]
< 0.5 µM | < 0.2 µM | COc1cc(C(=O)NC[C@](O)(c2cc3c(c(-c4ccc(F)c(F)c4F)n2)OC[C@@]3(C(N)=O)C(F)F)C(F)(F)F)cc2cc(Cl)c(C)nc12 [Example 1041]
> 0.5 µM | > 0.2 µM | COc1cc(C(=O)NC[C@](O)(c2cc3c(c(-c4ccc(F)c(Cl)c4)n2)OC[C@@]3(CF)C(N)=O)C(F)(F)F)cc2cc(Cl)c(C)nc12 [Example 1046]
< 0.5 µM | < 0.2 µM | COc1cc(C(=O)NC[C@](O)(c2cc3c(c(-c4ccc(F)c(Cl)c4)n2)OC[C@]3(CF)C(N)=O)C(F)(F)F)cc2cc(Cl)c(C)nc12 [Example 1047]
< 0.5 µM | < 0.2 µM | COc1cc(C(=O)NC[C@](O)(c2cc3c(c(-c4ccc(F)c(Cl)c4)n2)OC[C@]3(CF)C(N)=O)C(F)(F)F)ccc1OC1CC1 [Example 1049]
< 0.5 µM | < 0.2 µM | COc1cc(C(=O)NC[C@](O)(c2cc3c(c(-c4ccc(F)c(Cl)c4)n2)OCC3(CF)C(N)=O)C(F)(F)F)cc2cn(C3CC3)nc12 (stereo partly drawn) [Example 1050]
> 0.5 µM | < 0.2 µM | COc1cc(C(=O)NC[C@](O)(c2cc3c(c(-c4ccc(F)c(Cl)c4)n2)OC[C@@]3(CF)C(N)=O)C(F)(F)F)cc2cn(C3CC3)nc12 [Example 1051]
< 0.5 µM | < 0.2 µM | COc1cc(C(=O)NC[C@](O)(c2cc3c(c(-c4ccc(F)c(Cl)c4)n2)OC[C@]3(CF)C(N)=O)C(F)(F)F)cc2cn(C3CC3)nc12 [Example 1052]
> 0.5 µM | > 0.2 µM | COc1cc(C(=O)NC[C@](O)(c2cc3c(c(-c4ccc(F)cc4)n2)OC[C@@]3(CF)C(N)=O)C2CC2)cc2cc(Cl)c(C)nc12 [Example 1055]
< 0.5 µM | < 0.2 µM | COc1cc(C(=O)NC[C@](O)(c2cc3c(c(-c4ccc(F)cc4)n2)OC[C@]3(CF)C(N)=O)C2CC2)cc2cc(Cl)c(C)nc12 [Example 1056]
< 0.5 µM | < 0.2 µM | COc1cc(C(=O)NC[C@](O)(c2cc3c(c(-c4ccc(F)cc4)n2)OC[C@]3(CF)C(N)=O)C2CC2)cc2cn(C(F)F)nc12 [Example 1062]
< 0.5 µM | < 0.2 µM | COc1cc(C(=O)NC[C@](O)(c2cc3c(c(-c4ccc(F)cc4)n2)OC[C@@]3(C(N)=O)C2CC2)C(F)(F)F)cc2cc(C3CC3)nn12 [Example 1065]
> 0.5 µM | > 0.2 µM | COc1cc(C(=O)NC[C@](O)(c2cc3c(c(-c4ccc(F)cc4)n2)OC[C@]3(C(N)=O)C2CC2)C(F)(F)F)cc2cc(C3CC3)nn12 [Example 1066]
> 0.5 µM | < 0.2 µM | C[C@]1(C(N)=O)COc2c1cc([C@@](O)(CNC(=O)c1cc3c(cn1)OC(F)(F)O3)C(F)(F)F)nc2-c1ccc(F)cc1 [Example 1067]
< 0.5 µM | < 0.2 µM | COc1cc(C(=O)NC[C@](O)(c2cc3c(c(-c4ccc(F)cc4)n2)OC[C@]3(C)C(N)=O)C(F)(F)F)cc2cn(C(F)(F)F)nc12 [Example 1068]
> 0.5 µM | < 0.2 µM | COc1cc(C(=O)NC[C@](O)(c2cc3c(c(-c4ccc(F)cc4)n2)OC[C@]3(C)C(N)=O)C(F)(F)F)cc2cc(C(F)F)nnc12 [Example 1069]
< 0.5 µM | < 0.2 µM | COc1cc(C(=O)NC[C@](O)(c2cc3c(c(-c4ccc(F)c(Cl)c4F)n2)OC[C@]3(C)C(N)=O)C2CC2)cc2cc(C)c(Cl)nc12 [Example 1072]
< 0.5 µM | < 0.2 µM | COc1cc(C(=O)NC[C@](O)(c2cc3c(c(-c4ccc5c(c4)OC(F)(F)O5)n2)OC[C@]3(C)C(N)=O)C2CC2)cc2cc(C)c(Cl)nc12 [Example 1074]
< 0.5 µM | < 0.2 µM | COc1cc(C(=O)NC[C@](O)(c2cc3c(c(-c4ccc(F)c(C#N)c4F)n2)OC[C@]3(C)C(N)=O)C(F)(F)F)cc2cn(C3CC3)nc12 [Example 1080]
> 0.5 µM | < 0.2 µM | COc1cc(C(=O)NC[C@](O)(c2cc3c(c(-c4ccc(F)cc4)n2)OC[C@]3(C)C(N)=O)C(F)(F)F)cc2cc(Br)c(Cl)nc12 [Example 1090]
